From US6262073A, “Pharmaceutical methods of use of 5-substituted and 5,5 disubstituted-3,4-dihydroxy-2(5H)-furanones” (Oxis International Inc., priority 2000, dated 2001)

The molecules below were run against T1, Cyclooxygenase-1 (cyclooxygenase from ram seminal vesicles) (Ovis aries, UniProt P05979) (assay: Cyclooxygenase-1 screen (COX-1)). Details: 300 μM.
T1 construct: cyclooxygenase from ram seminal vesicles; from tissue; host or cells: ram seminal vesicles
T1 sequence (P05979 25-600): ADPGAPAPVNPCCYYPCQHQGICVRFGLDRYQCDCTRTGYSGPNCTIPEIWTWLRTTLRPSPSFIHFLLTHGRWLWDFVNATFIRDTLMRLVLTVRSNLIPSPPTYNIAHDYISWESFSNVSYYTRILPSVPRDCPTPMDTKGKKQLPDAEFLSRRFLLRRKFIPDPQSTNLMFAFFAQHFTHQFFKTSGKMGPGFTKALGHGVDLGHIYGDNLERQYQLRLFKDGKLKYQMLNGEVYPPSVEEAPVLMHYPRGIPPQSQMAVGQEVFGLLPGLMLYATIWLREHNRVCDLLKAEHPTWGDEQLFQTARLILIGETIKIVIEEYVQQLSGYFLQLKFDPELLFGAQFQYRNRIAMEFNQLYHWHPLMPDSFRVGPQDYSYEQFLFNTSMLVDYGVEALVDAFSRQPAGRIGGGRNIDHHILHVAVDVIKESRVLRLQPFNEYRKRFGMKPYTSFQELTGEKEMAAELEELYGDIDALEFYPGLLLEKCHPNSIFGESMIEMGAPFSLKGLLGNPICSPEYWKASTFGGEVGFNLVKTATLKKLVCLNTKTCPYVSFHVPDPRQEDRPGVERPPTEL
Format: biochemical
Procedure: (§1) The compounds of the invention were screened for their anti-inflammatory activity using a series of in vitro tests the details of which are given below. The activity of various compounds against 5-lipoxygenase, cycloxygenase-1, cycloxygenase-2 and lipid peroxidase was evaluated. Results of the screening procedures are included in TABLE I, and the activity against 5-lipoxygenase at a test concentration of 1 μM in Table II.
Cyclooxygenase-1 is involved in the formation of prostaglandins and thromboxane via the oxidative metabolism of arachidonic acid. Briefly, cyclooxygenase from ram seminal vesicles is incubated with arachidonic acid (100 μm) for 2 minutes at 37° C. in the presence or absence of test compounds according to the methods of A. T. Evans et al., Biochem. Pharm. 36:2035-2037(1987) and R. Boopathy et al., Biochem J. 239:371-377 (1968). The assay is terminated by the addition of trichioroacetic acid and cyclooxygenase activity is determined by reading the absorbance at 530 nm. […]

SMILES	COX-1 percent inhibition [%]
O=C1OC(CCC#Cc2ccccc2CSc2ccccc2)C(O)=C1O (centres unmarked) [Example 30, 3,4-Dihydroxy-5-[(4-(2-(phenylthio)methyl)phenyl)-3-butynyl]-2(5H)-furanone]	26
O=C1OC(CCSc2ccc3ccccc3c2)C(O)=C1O (centres unmarked) [Example 26, 3,4-Dihydroxy-5-[2-(naphthyl-2-thio)ethyl]-2(5H)-furanone]	12
CCCS(=O)(=O)Cc1ccccc1C#CCCC1OC(=O)C(O)=C1O (centres unmarked) [Example 35, 3,4-Dihydroxy-5-[(4-(2-(propylsulfonyl)methyl)phenyl)-3-butynyl]-2(5H)-furanone]	25
O=C1OC(CCOc2cccc3ccccc23)C(O)=C1O (centres unmarked) [Example 18, 3,4-Dihydroxy-5-[2-(1-naphthoxy)ethyl]-2(5H)-furanone]	11
O=C1OC(CCN2C(=O)c3cccc4cccc(c34)C2=O)C(O)=C1O (centres unmarked) [Example 19, 3,4-Dihydroxy-5-[2-(1,8-naphthalimide)-N-ethyl]-2(5H)-furanone]	9
CCCSCc1ccccc1C#CCCC1OC(=O)C(O)=C1O (centres unmarked) [Example 33, 3,4-Dihydroxy-5-[(4-(2-(propylthio)methyl)phenyl)-3-butynyl]-2(5H)-furanone]	37
CCCCNS(=O)(=O)c1ccccc1C#CCCC1OC(=O)C(O)=C1O (centres unmarked) [Example 31]	37
Cc1ccccc1C#CCCC1OC(=O)C(O)=C1O (centres unmarked) [Example 28, 3,4-Dihydroxy-5-[(4-(2-methyl)phenyl)-3-butynyl]-2(5H)-furanone]	4

These molecules were tested against T2, Cyclooxygenase-2 (prostaglandin H synthetase-2) from sheep placenta (Ovis aries, UniProt P79208) (assay: Cyclooxygenase-2 screen (COX-2)). Details: read-out: COX-2 percent inhibition.
T2 construct: cyclooxygenase-2 from sheep placenta; from tissue; host or cells: sheep placenta
T2 sequence (P79208 17-603): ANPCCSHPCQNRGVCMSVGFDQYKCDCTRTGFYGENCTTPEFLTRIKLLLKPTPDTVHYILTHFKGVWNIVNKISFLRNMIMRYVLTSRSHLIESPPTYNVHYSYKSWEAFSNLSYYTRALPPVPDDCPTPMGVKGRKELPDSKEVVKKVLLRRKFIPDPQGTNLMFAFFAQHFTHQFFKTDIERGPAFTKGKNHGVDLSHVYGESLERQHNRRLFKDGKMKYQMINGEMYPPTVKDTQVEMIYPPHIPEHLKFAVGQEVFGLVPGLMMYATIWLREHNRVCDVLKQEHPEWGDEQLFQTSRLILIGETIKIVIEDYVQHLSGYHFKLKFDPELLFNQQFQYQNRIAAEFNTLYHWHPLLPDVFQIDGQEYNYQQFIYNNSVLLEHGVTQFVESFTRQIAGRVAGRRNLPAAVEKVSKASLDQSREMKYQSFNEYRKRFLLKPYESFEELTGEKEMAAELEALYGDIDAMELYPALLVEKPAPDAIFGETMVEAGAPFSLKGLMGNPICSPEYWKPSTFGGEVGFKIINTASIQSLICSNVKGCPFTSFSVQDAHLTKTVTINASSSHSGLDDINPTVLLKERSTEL
Format: biochemical
Procedure: as §1
Cyclooxygenase-2, also known as prostaglandin H synthetase-2, catalyzes the rate- limiting step in the synthesis of inflammatory prostaglandins. In this reaction cyclooxygenase-2 catalyzes the oxygenation of unesterified precursors to form cyclic endoperoxide derivatives, including prostaglandin H. Briefly, cyclooxygenase-2 from sheep placenta, 14 μg/assay tube, is incubated with arachidonic acid (500 μM) for 1.5 minutes at 27° C. in the absence or presence of test compounds according to the methods of A. T. Evans, et al., Biochem Pharm. […] Res. Comm. […] Compounds are screened at 300 μM.

SMILES	inhibition at 300 µM [%]
O=C1OC(CCC#Cc2ccccc2CSc2ccccc2)C(O)=C1O (centres unmarked) [Example 30, 3,4-Dihydroxy-5-[(4-(2-(phenylthio)methyl)phenyl)-3-butynyl]-2(5H)-furanone]	16
O=C1OC(CCSc2ccc3ccccc3c2)C(O)=C1O (centres unmarked) [Example 26, 3,4-Dihydroxy-5-[2-(naphthyl-2-thio)ethyl]-2(5H)-furanone]	12
CCCS(=O)(=O)Cc1ccccc1C#CCCC1OC(=O)C(O)=C1O (centres unmarked) [Example 35, 3,4-Dihydroxy-5-[(4-(2-(propylsulfonyl)methyl)phenyl)-3-butynyl]-2(5H)-furanone]	13
O=C1OC(CCOc2cccc3ccccc23)C(O)=C1O (centres unmarked) [Example 18, 3,4-Dihydroxy-5-[2-(1-naphthoxy)ethyl]-2(5H)-furanone]	-12
O=C1OC(CCN2C(=O)c3cccc4cccc(c34)C2=O)C(O)=C1O (centres unmarked) [Example 19, 3,4-Dihydroxy-5-[2-(1,8-naphthalimide)-N-ethyl]-2(5H)-furanone]	2
CCCSCc1ccccc1C#CCCC1OC(=O)C(O)=C1O (centres unmarked) [Example 33, 3,4-Dihydroxy-5-[(4-(2-(propylthio)methyl)phenyl)-3-butynyl]-2(5H)-furanone]	20
CCCCNS(=O)(=O)c1ccccc1C#CCCC1OC(=O)C(O)=C1O (centres unmarked) [Example 31]	23
Cc1ccccc1C#CCCC1OC(=O)C(O)=C1O (centres unmarked) [Example 28, 3,4-Dihydroxy-5-[(4-(2-methyl)phenyl)-3-butynyl]-2(5H)-furanone]	15

These molecules were tested against T3, 5-Lipoxygenase (crude enzyme preparation from rat basophilic leukemia cells, RBL-1) (Rattus norvegicus, UniProt P12527) (assay: 5-Lipoxygenase screen (5-LO), 5-HETE by RIA). Details: 30 μM; read-out: 5-LO percent inhibition.
T3 construct: crude enzyme preparation from rat basophilic leukemia cells (RBL-1); endogenous in cells; host or cells: rat basophilic leukemia cells (RBL-1)
T3 sequence (P12527 1-673): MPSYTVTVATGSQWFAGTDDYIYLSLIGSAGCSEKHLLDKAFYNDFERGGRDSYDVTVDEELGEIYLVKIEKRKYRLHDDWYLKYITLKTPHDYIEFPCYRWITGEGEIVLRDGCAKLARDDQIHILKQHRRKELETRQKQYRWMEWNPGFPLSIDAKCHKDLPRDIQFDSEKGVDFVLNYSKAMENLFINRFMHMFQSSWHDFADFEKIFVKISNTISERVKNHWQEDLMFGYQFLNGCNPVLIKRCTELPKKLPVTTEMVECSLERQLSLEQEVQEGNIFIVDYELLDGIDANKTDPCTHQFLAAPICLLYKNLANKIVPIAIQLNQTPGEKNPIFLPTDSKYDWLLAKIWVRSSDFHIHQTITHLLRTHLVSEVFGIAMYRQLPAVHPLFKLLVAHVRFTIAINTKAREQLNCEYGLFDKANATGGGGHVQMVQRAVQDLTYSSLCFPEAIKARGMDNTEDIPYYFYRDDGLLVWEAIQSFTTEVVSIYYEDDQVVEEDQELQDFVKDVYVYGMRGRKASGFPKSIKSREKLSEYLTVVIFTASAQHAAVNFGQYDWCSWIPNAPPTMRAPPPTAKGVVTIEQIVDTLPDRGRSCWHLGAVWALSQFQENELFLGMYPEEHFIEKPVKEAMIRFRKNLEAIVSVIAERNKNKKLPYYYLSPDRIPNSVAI
Format: biochemical
Procedure: as §1
5-Lipoxygenase catalyzes the oxidative metabolism of arachidonic acid to […] (5-HETE), the initial reaction leading to the formation of the leukotrienes. Briefly, the testing procedure utilizes a crude enzyme preparation from rat basophilic leukemia cells (RBL-1) according to the methods of T. Shimuzu et al. Pro. […] Test compounds are pre-incubated with the enzyme preparation for 5 minutes at room temperature and the reaction is initiated by the addition of arachidonic acid. Following an 8 minute incubation at room temperature, the reaction is terminated by the addition of citric acid and concentrations of 5-HETE are determined by RIA. Compounds are screened at 30 μM.

SMILES	inhibition at 30 µM [%]
O=C1OC(CCC#Cc2ccccc2CSc2ccccc2)C(O)=C1O (centres unmarked) [Example 30, 3,4-Dihydroxy-5-[(4-(2-(phenylthio)methyl)phenyl)-3-butynyl]-2(5H)-furanone]	100
O=C1OC(CCSc2ccc3ccccc3c2)C(O)=C1O (centres unmarked) [Example 26, 3,4-Dihydroxy-5-[2-(naphthyl-2-thio)ethyl]-2(5H)-furanone]	101
CCCS(=O)(=O)Cc1ccccc1C#CCCC1OC(=O)C(O)=C1O (centres unmarked) [Example 35, 3,4-Dihydroxy-5-[(4-(2-(propylsulfonyl)methyl)phenyl)-3-butynyl]-2(5H)-furanone]	30
O=C1OC(CCOc2cccc3ccccc23)C(O)=C1O (centres unmarked) [Example 18, 3,4-Dihydroxy-5-[2-(1-naphthoxy)ethyl]-2(5H)-furanone]	99
O=C1OC(CCN2C(=O)c3cccc4cccc(c34)C2=O)C(O)=C1O (centres unmarked) [Example 19, 3,4-Dihydroxy-5-[2-(1,8-naphthalimide)-N-ethyl]-2(5H)-furanone]	86
CCCSCc1ccccc1C#CCCC1OC(=O)C(O)=C1O (centres unmarked) [Example 33, 3,4-Dihydroxy-5-[(4-(2-(propylthio)methyl)phenyl)-3-butynyl]-2(5H)-furanone]	84
CCCCNS(=O)(=O)c1ccccc1C#CCCC1OC(=O)C(O)=C1O (centres unmarked) [Example 31]	81
Cc1ccccc1C#CCCC1OC(=O)C(O)=C1O (centres unmarked) [Example 28, 3,4-Dihydroxy-5-[(4-(2-methyl)phenyl)-3-butynyl]-2(5H)-furanone]	58

Same assay, conditions: read-out: Percent inhibition of 5-LO; test conc. 1 μM (Table II)

SMILES	inhibition at 1 µM [%]
O=C1OC(CCC#Cc2ccccc2CSc2ccccc2)C(O)=C1O (centres unmarked) [Example 30, 3,4-Dihydroxy-5-[(4-(2-(phenylthio)methyl)phenyl)-3-butynyl]-2(5H)-furanone]	70
O=C1OC(CCSc2ccc3ccccc3c2)C(O)=C1O (centres unmarked) [Example 26, 3,4-Dihydroxy-5-[2-(naphthyl-2-thio)ethyl]-2(5H)-furanone]	54
O=C1OC(CCOc2cccc3ccccc23)C(O)=C1O (centres unmarked) [Example 18, 3,4-Dihydroxy-5-[2-(1-naphthoxy)ethyl]-2(5H)-furanone]	49

Each molecule was assayed on Lipid peroxidation (rat liver microsomes) (assay: Lipid peroxidation screen (LPO), CCl4-induced, liver microsomes). Details: 300 μM.
Format: biochemical
Procedure: as §1
Lipid peroxidation is a consequence of various stimuli, including reactive free radicals. Polyunsaturated fatty acids associated with plasma membranes are degraded due to enzymatic induction by reactive agents such as CCl4, leading to cellular damage. Briefly, microsomes are prepared from rat livers and the protein concentration is determined according to the method of D. Mansuy et al., Biochem. Biophys. Res. Comm. 135:1015-1021(1986). A reaction mixture consisting of 2 mg of the microsomal preparation, an NADPH generating system, 20 mM CCl4 and test compound are incubated for 12 minutes at 37° C. The reaction is terminated by the addition of a mixture of thiobarbituric acid and trichloroacetic acid. The absorbance is read at 535 nm and is proportional to the concentration of malondialdehyde. Compounds are screened at 300 μM.

SMILES	LPO percent inhibition [%]
O=C1OC(CCC#Cc2ccccc2CSc2ccccc2)C(O)=C1O (centres unmarked) [Example 30, 3,4-Dihydroxy-5-[(4-(2-(phenylthio)methyl)phenyl)-3-butynyl]-2(5H)-furanone]	62
O=C1OC(CCSc2ccc3ccccc3c2)C(O)=C1O (centres unmarked) [Example 26, 3,4-Dihydroxy-5-[2-(naphthyl-2-thio)ethyl]-2(5H)-furanone]	77
CCCS(=O)(=O)Cc1ccccc1C#CCCC1OC(=O)C(O)=C1O (centres unmarked) [Example 35, 3,4-Dihydroxy-5-[(4-(2-(propylsulfonyl)methyl)phenyl)-3-butynyl]-2(5H)-furanone]	60
O=C1OC(CCOc2cccc3ccccc23)C(O)=C1O (centres unmarked) [Example 18, 3,4-Dihydroxy-5-[2-(1-naphthoxy)ethyl]-2(5H)-furanone]	71
O=C1OC(CCN2C(=O)c3cccc4cccc(c34)C2=O)C(O)=C1O (centres unmarked) [Example 19, 3,4-Dihydroxy-5-[2-(1,8-naphthalimide)-N-ethyl]-2(5H)-furanone]	68
CCCSCc1ccccc1C#CCCC1OC(=O)C(O)=C1O (centres unmarked) [Example 33, 3,4-Dihydroxy-5-[(4-(2-(propylthio)methyl)phenyl)-3-butynyl]-2(5H)-furanone]	74
CCCCNS(=O)(=O)c1ccccc1C#CCCC1OC(=O)C(O)=C1O (centres unmarked) [Example 31]	73
Cc1ccccc1C#CCCC1OC(=O)C(O)=C1O (centres unmarked) [Example 28, 3,4-Dihydroxy-5-[(4-(2-methyl)phenyl)-3-butynyl]-2(5H)-furanone]	61
